Assay results taken from US11820729B2 (Johnson & Johnson Consumer Inc., priority 2014, dated 2023).

Tests used:
[1] = test system: S. mutans biofilm; test: S. mutans single species kill assay (in-vitro biofilm model); format: cell-based; details: simple solution formulas (Table 13), 30 second treatment
Experimental: The formulations listed in Example 7 were prepared and tested using an in-vitro single species S. mutans biofilm model. A 24-hour S. mutans biofilm is grown on a polystyrene peg plate (96 pegs, N=6 per test group). The pegs were subsequently treated for thirty seconds with each of formulations H and I, as well as positive and negative controls. The treatment is applied as a single thirty (30) second treatment. The positive control is a commercially available essential oil mouth rinse. The negative control is sterile water. After treatment the biofilm is neutralized and rinsed. The biofilm is harvested via sonication using a Misonix Ultrasonic Liquid Processor (Farmingdale, N.Y.). Using a Celsis Rapid Detection RapiScreen kit (Celsis International PLC, Chicago), the bacteria are lysed with Celsis Luminex and then the adenosine triphosphate (ATP) from the lysed bacteria is measured using the bioluminescence marker LB960 Microplate Luminometer supplied by Berthold (Wildbad, Germany). Data are reported in log RLU (relative light units) where decreasing log RLUs indicates fewer viable bacteria remaining on the biofilm substrate.

[2] = test system: 16-hour salivary biofilm on pellicle coated hydroxyapatite pegs; test: Prevention assay: prevention of bacterial attachment to pellicle coated hydroxyapatite pegs, ATP bioluminescence; format: cell-based; details: for prevention of bacterial attachment in alcohol free full formulations: Table 15 formulations, water as the only solvent; for prevention of bacterial attachment in alcohol-free full formulations: Table 17 formulations, water and propylene glycol as solvents; for ability to prevent bacterial attachment / preventing bacterial attachment the best: simple solution solvent base formulas (Table 11)
Experimental: The formulations in Examples 2-4, 6, 8 and 9 were prepared and test for prevention of bacterial attachment using the prevention assay. In this assay hydroxyapatite-coated polystyrene peg plate (96 pegs, N=8 per group) was exposed to saliva for one minute to form a pellicle at a temperature of 35 C. Then, for each formulation, eight pegs (N=8) were pre-treated for ten minutes with the formulation using an orbital shaker set to 500 RPM at room temperature. As a negative control, eight pegs (N=8) were pre-treated for ten minutes with sterile water. Next, a 16-hour salivary biofilm was grown on these polystyrene peg plates at a temperature of 35 C.
After all treatments were complete, the biofilm from each peg was neutralized and rinsed. The biofilm was harvested via sonication using a Q-Sonica Q700 Ultrasonic Liquid Processor with 431MP4-00 microplate horn Damper and 0.5:1 reverse gain booster (Q-Sonica, Newtown, Conn.). Using a Celsis Rapid Detection RapiScreen kit (Celsis International PLC, Chicago, Ill.), the bacteria were lysed with Celsis Luminex and then the adenosine triphosphate (ATP) from the lysed bacteria was measured using the bioluminescence marker Celcis Luminate and a Centro LB 960 Microplate Luminometer supplied by Berthold Technologies (Wildbad, Germany). Data were reported in log RLU (relative light units) where decreasing log RLUs indicated fewer viable bacteria remained on the biofilm substrate. The log RLUs for the prevention assay are shown on Tables 2, 4, 6, 10, 14, and 16.

[3] = HPLC quantification of compound remaining after storage at 50° C.; format: physicochemical
Experimental: Briefly, formulations containing either LAE or any of the 26 compounds and standards are diluted into a solution of 50% acetonitrile and 50% water. They are evaluated on an Agilent HPLC using a Zorbax ion exchange column. In the method, 10 uL of the sample is withdrawn and ran through the HPLC with a 40% potassium phosphate (molarity at pH 3.0) 60% acetonitrile mobile phase. […] The molecule peak is auto integrated using the Online Agilent HPLC software. Comparisons are made to the standard to identify the % of compound remaining following storage.

structural stability via HPLC in simple solution formulations ([3]; storage at 50° C. for 4 and 8 weeks (Table 13 formulas)) | % of molecule maintained out to 8 weeks when stored at 50° C. ([3]; 8 weeks, 50° C., HPLC, formulations of Table 7) | stability in an alcohol-free formulation ([3]; storage at 50° C., HPLC) | Compound | log reduction in S. mutans [1] | prevention of bacterial attachment in alcohol free full formulations [2] | prevention of bacterial attachment in alcohol-free full formulations [2] | ability to prevent bacterial attachment [2] | preventing bacterial attachment the best [2] | effect of presence of essential oils (EOs) on prevention of bacterial attachment ([2]; 0.15 wt % compound 9, Table 6) | effect of surfactant on prevention of bacterial attachment ([2]; 0.15 wt % compound 9, Table 6) | prevention of bacterial attachment in full formula ([2]; 0.15 wt % in alcohol free base, compositions K-R) | efficacy at preventing bacterial attachment ([2]; 0.15 wt % in water) | prevention of bacterial attachment compared with LAE ([2]; 0.15 wt %, 21.6% alcohol and water-based solution) | most effective concentration for prevention of bacterial attachment ([2]; compound 9 in simple water solution (Table 1 compositions)) [wt %] | concentration effect on prevention of bacterial attachment ([2]; compound 9 in water, 0.01-0.4 w/w %)
 |  |  | CCCCCCCCCCCC(=O)NC(CCCNC(=N)N)C(=O)NC (centres unmarked) [Compound 6] | do not Result in More than a One Log Reduction in S. mutans | Prevent Bacterial Attachment | Prevent Bacterial Attachment | have the ability to prevent bacterial attachment | preventing bacterial attachment the best |  |  |  |  |  |  | 
 |  |  | CCCCCCCCCCCC(=O)NC(CCCCN)C(=O)NCC (centres unmarked) [Compound 11, N-[5-amino-1-(ethylcarbamoyl)pentyl]dodecanamide] | do not Result in More than a One Log Reduction in S. mutans | Prevent Bacterial Attachment | Prevent Bacterial Attachment | have the ability to prevent bacterial attachment |  |  |  |  |  |  |  | 
 |  |  | [amino({[4-dodecanamido-4-(methylcarbamoyl)butyl]amino})methylidene]azanium [Compound 4] | do not Result in More than a One Log Reduction in S. mutans |  |  | have the ability to prevent bacterial attachment |  |  |  |  |  |  |  | 
significant decrease in peak area |  |  | CCCCCCCC(=O)NC(CCCNC(=N)N)C(=O)NCC (centres unmarked) [Compound 2, [amino({[4-(ethylcarbamoyl)-4-octanamidobutyl]amino})methylidene]azanium] | do not Result in More than a One Log Reduction in S. mutans | Prevent Bacterial Attachment | Prevent Bacterial Attachment | have the ability to prevent bacterial attachment | preventing bacterial attachment the best |  |  |  |  |  |  | 
 |  |  | CCCCCCCC(=O)NC(CCCNC(=N)N)C(=O)NCCCCCC (centres unmarked) [Compound 3, [amino({[4-(hexylcarbamoyl)-4-octanamidobutyl]amino})methylidene]azanium] | do not Result in More than a One Log Reduction in S. mutans | Prevent Bacterial Attachment | Prevent Bacterial Attachment | have the ability to prevent bacterial attachment | preventing bacterial attachment the best |  |  |  |  |  |  | 
 | at least 90% | Maintains Stability | CCCCCCCCCCCC(=O)NC(CCCNC(=N)N)C(=O)NCC (centres unmarked) [Compound 9, [amino({[4-dodecanamido-4-(ethylcarbamoyl)butyl]amino})methylidene]azanium] | do not Result in More than a One Log Reduction in S. mutans | Prevent Bacterial Attachment | Prevent Bacterial Attachment | have the ability to prevent bacterial attachment | preventing bacterial attachment the best | has no effect | has a major effect | Prevents Bacterial Attachment in Full Formula | demonstrated efficacy at preventing bacterial attachment | equally as efficacious as LAE | 0.3 | dose dependent response
 |  |  | CCCCCCCCCCCC(=O)NC(CCCN)C(=O)NCC (centres unmarked) [Compound 12, N-[4-amino-1-(ethylcarbamoyl)butyl]dodecanamide] | do not Result in More than a One Log Reduction in S. mutans | Prevent Bacterial Attachment | Prevent Bacterial Attachment | have the ability to prevent bacterial attachment | preventing bacterial attachment the best |  |  |  |  |  |  | 
